Measurements from patent publication EP4707280A1, “1,4-CINEOLE DERIVATIVE AND INTERMEDIATE THEREOF, HERBICIDE CONTAINING SAID DERIVATIVE AS ACTIVE INGREDIENT, METHOD FOR USING HERBICIDE, AND METHOD FOR PREPARING AGROCHEMICAL COMPOSITION” (HOKKO CHEMICAL INDUSTRY CO., LTD., priority 2023, dated 2024).

Key:
Type in all cases: in vivo
[1] = system: Echinochloa crus-galli var. formosensis; test: Test Example 5: herbicidal effect test by soil application in paddy rice (low dose); settings: 7.5 g per 10 ares, applied immediately after sowing, flooded pots, 14 days after application; for inhibition at 75 g/ha: Echinochloa crus-galli, soil, 336 h, read-out: weed inhibition rate
How it was run: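 Flooded-paddy soil application at low dose (7.5 g a.i. per 10 ares), given by dropper as diluted emulsifiable concentrate directly after sowing weeds 0–1 cm deep. Effect evaluated after 14 days in duplicate.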

[2] = system: Echinochloa crus-galli; test: Test Example 4: herbicidal effect test by stem and leaf treatment in upland field; settings: 120 g per 10 ares, sprayed seven days after sowing, upland soil, 14 days after application; for inhibition at 1200 g/ha: Echinochloa crus-galli, read-out: weed inhibition rate
[3] = system: Echinochloa crus-galli; test: Test Example 7: herbicidal effect test by soil application in upland field (low dose); settings: 7.5 g per 10 ares, sprayed one day after sowing, 14 days after application; for inhibition at 75 g/ha: Echinochloa crus-galli, read-out: weed inhibition rate
How it was run: (§1)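 Upland soil (alluvial loam) pots, seeds mixed into top 1 cm layer → EC formulation diluted with water, sprayed onto soil 1 d post-sowing, 100 L/10 a → 7.5 g a.i./10 a → inhibition (%) scored at 14 d, n=2.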

[4] = system: Digitaria ciliaris; test: as above; settings: 7.5 g per 10 ares, sprayed one day after sowing, 14 days after application; for inhibition at 75 g/ha: Digitaria ciliaris, read-out: weed inhibition rate
How it was run: as §1

[5] = system: Echinochloa crus-galli; test: Test Example 3: herbicidal effect test by soil application in upland field; settings: 120 g per 10 ares, sprayed one day after sowing, 14 days after application; for inhibition at 1200 g/ha: Echinochloa crus-galli, read-out: weed inhibition rate
How it was run: (§2)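 Pre-emergence test: seeds mixed into top 1 cm of alluvial loam upland soil in pots; emulsifiable concentrate diluted in water sprayed on soil one day after sowing at 100 L/10 a, 120 g a.i./10 a. Weed inhibition rate (%) scored at 14 days, in duplicate.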

[6] = system: Digitaria ciliaris; test: as above; settings: 120 g per 10 ares, sprayed one day after sowing, 14 days after application; for inhibition at 1200 g/ha: Digitaria ciliaris, read-out: weed inhibition rate
How it was run: as §2

[7] = system: Scirpus juncoides; test: Test Example 2: herbicidal effect test by application during growth period of paddy rice; settings: 120 g per 10 ares, applied seven days after sowing, flooded pots, 14 days after application; for inhibition at 1200 g/ha: Schoenoplectiella juncoides, read-out: weed inhibition rate
How it was run: (§3)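 Steps: puddle fertilized paddy soil; sow 30 seeds of each weed at 0–1 cm; flood to roughly 3 cm and keep in a glasshouse; at day 7 drop in diluted emulsifiable concentrate (120 g a.i. per 10 ares); score inhibition (%) 14 days later, two replicates.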

[8] = system: Echinochloa crus-galli var. formosensis; test: as above; settings: 120 g per 10 ares, applied seven days after sowing, flooded pots, 14 days after application; for inhibition at 1200 g/ha: Echinochloa crus-galli, read-out: weed inhibition rate
How it was run: as §3

[9] = system: Echinochloa crus-galli; test: Test Example 8: herbicidal effect test by stem and leaf treatment in upland field (low dose); settings: 7.5 g per 10 ares, sprayed seven days after sowing, upland soil, 14 days after application; for inhibition at 75 g/ha: Echinochloa crus-galli, read-out: weed inhibition rate
[10] = system: Digitaria ciliaris; test: as above; settings: 7.5 g per 10 ares, sprayed seven days after sowing, upland soil, 14 days after application; for inhibition at 75 g/ha: Digitaria ciliaris, read-out: weed inhibition rate
[11] = system: Digitaria ciliaris; test: Test Example 4: herbicidal effect test by stem and leaf treatment in upland field; settings: 120 g per 10 ares, sprayed seven days after sowing, upland soil, 14 days after application; for inhibition at 1200 g/ha: Digitaria ciliaris, read-out: weed inhibition rate
[12] = system: Scirpus juncoides; test: Test Example 1: herbicidal effect test by soil application in paddy rice; settings: 120 g active ingredient per 10 ares, applied immediately after sowing, flooded pots, 14 days after application; for pest or weed control at 1200 g/ha: Schoenoplectiella juncoides, soil, 336 h, read-out: weed inhibition rate
How it was run: (§4)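 Soil-applied test under flooded paddy conditions (~3 cm water) in a glass greenhouse. Seeds were sown shallow (0–1 cm, 30 per species), then compound was dripped in as diluted emulsifiable concentrate at 120 g a.i./10 a.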

[13] = system: Echinochloa crus-galli var. formosensis; test: as above; settings: 120 g active ingredient per 10 ares, applied immediately after sowing, flooded pots, 14 days after application; for pest or weed control at 1200 g/ha: Echinochloa crus-galli, soil, 336 h, read-out: weed inhibition rate
How it was run: as §4

[14] = system: Echinochloa crus-galli var. formosensis; test: Test Example 6: herbicidal effect test by application during growth period of paddy rice (low dose); settings: 7.5 g per 10 ares, applied seven days after sowing, flooded pots, 14 days after application; for inhibition at 75 g/ha: Echinochloa crus-galli, read-out: weed inhibition rate
How it was run: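 Paddy soil in flooded Wagner pots (about 3 cm water), weeds sown at 0–1 cm, 30 seeds each, grown in a glass greenhouse. Seven days after sowing, water-diluted emulsifiable concentrate was dropped into the water at 7.5 g active ingredient per 10 ares. Weed inhibition rate (%) was scored 14 days after application, in duplicate.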

CC(C)C12CC(OCc3ccccc3)C(C)(CC1I)O2 (centres unmarked) [1-1408, 5-iodo-1-methyl-2-phenylmethoxy-4-isopropyl-7-oxabicyclo[2.2.1]heptane]
≥ 80%: inhibition at 75 g/ha [1] | inhibition at 1200 g/ha [2] | inhibition at 75 g/ha [3] | inhibition at 75 g/ha [4] | inhibition at 1200 g/ha [5] | inhibition at 1200 g/ha [6] | inhibition at 1200 g/ha [7] | inhibition at 1200 g/ha [8] | inhibition at 75 g/ha [9] | inhibition at 75 g/ha [10] | inhibition at 1200 g/ha [11] | pest or weed control at 1200 g/ha [12] | pest or weed control at 1200 g/ha [13] | inhibition at 75 g/ha [14]

CCNC(=O)O[C@H]1C[C@]2(C)O[C@@]1(C(C)C)C[C@H]2OCc1ccccc1F [1-1615, [(1R,2S,4S,5R)-5-[(2-fluorophenyl)methoxy]-1-isopropyl-4-methyl-7-oxabicyclo[2.2.1]heptan-2-yl] N-ethylcarbamate]
≥ 80%: inhibition at 75 g/ha [1] | inhibition at 1200 g/ha [2] | inhibition at 75 g/ha [3] | inhibition at 75 g/ha [4] | inhibition at 1200 g/ha [5] | inhibition at 1200 g/ha [6] | inhibition at 1200 g/ha [7] | inhibition at 1200 g/ha [8] | inhibition at 75 g/ha [9] | inhibition at 75 g/ha [10] | inhibition at 1200 g/ha [11] | pest or weed control at 1200 g/ha [12] | pest or weed control at 1200 g/ha [13] | inhibition at 75 g/ha [14]

COc1ccccc1CO[C@@H]1C[C@]2(C(C)C)O[C@@]1(C)C[C@@H]2I [1-747, (1R,2S,4S,5R)-2-iodo-1-isopropyl-5-[(2-methoxyphenyl)methoxy]-4-methyl-7-oxabicyclo[2.2.1]heptane]
≥ 80%: inhibition at 75 g/ha [1] | inhibition at 1200 g/ha [2] | inhibition at 75 g/ha [3] | inhibition at 75 g/ha [4] | inhibition at 1200 g/ha [5] | inhibition at 1200 g/ha [6] | inhibition at 1200 g/ha [7] | inhibition at 1200 g/ha [8] | inhibition at 75 g/ha [9] | inhibition at 75 g/ha [10] | inhibition at 1200 g/ha [11] | pest or weed control at 1200 g/ha [12] | pest or weed control at 1200 g/ha [13] | inhibition at 75 g/ha [14]

Cc1cccc(C)c1CO[C@@H]1C[C@]2(C(C)C)O[C@@]1(C)C[C@@H]2I [1-777, (1R,2S,4S,5R)-5-[(2,6-dimethylphenyl)methoxy]-2-iodo-1-isopropyl-4-methyl-7-oxabicyclo[2.2.1]heptane]
≥ 80%: inhibition at 75 g/ha [1] | inhibition at 1200 g/ha [2] | inhibition at 75 g/ha [3] | inhibition at 75 g/ha [4] | inhibition at 1200 g/ha [5] | inhibition at 1200 g/ha [6] | inhibition at 1200 g/ha [7] | inhibition at 1200 g/ha [8] | inhibition at 75 g/ha [9] | inhibition at 75 g/ha [10] | inhibition at 1200 g/ha [11] | pest or weed control at 1200 g/ha [12] | pest or weed control at 1200 g/ha [13] | inhibition at 75 g/ha [14]

CC(C)[C@]12C[C@@H](OCc3ccccc3Br)[C@](C)(C[C@@H]1I)O2 [1-759, (1R,2S,4S,5R)-5-[(2-bromophenyl)methoxy]-2-iodo-1-isopropyl-4-methyl-7-oxabicyclo[2.2.1]heptane]
≥ 80%: inhibition at 75 g/ha [1] | inhibition at 1200 g/ha [2] | inhibition at 75 g/ha [3] | inhibition at 75 g/ha [4] | inhibition at 1200 g/ha [5] | inhibition at 1200 g/ha [6] | inhibition at 1200 g/ha [7] | inhibition at 1200 g/ha [8] | inhibition at 75 g/ha [9] | inhibition at 75 g/ha [10] | inhibition at 1200 g/ha [11] | pest or weed control at 1200 g/ha [12] | pest or weed control at 1200 g/ha [13] | inhibition at 75 g/ha [14]

CC(C)[C@]12C[C@@H](OCc3ccccc3I)[C@](C)(C[C@@H]1I)O2 [1-762, (1R,2S,4S,5R)-2-iodo-5-[(2-iodophenyl)methoxy]-1-isopropyl-4-methyl-7-oxabicyclo[2.2.1]heptane]
≥ 80%: inhibition at 75 g/ha [1] | inhibition at 1200 g/ha [2] | inhibition at 75 g/ha [3] | inhibition at 75 g/ha [4] | inhibition at 1200 g/ha [5] | inhibition at 1200 g/ha [6] | inhibition at 1200 g/ha [7] | inhibition at 1200 g/ha [8] | inhibition at 75 g/ha [9] | inhibition at 75 g/ha [10] | inhibition at 1200 g/ha [11] | pest or weed control at 1200 g/ha [12] | pest or weed control at 1200 g/ha [13] | inhibition at 75 g/ha [14]

CC(C)[C@]12C[C@@H](OCc3ccccn3)[C@](C)(C[C@@H]1I)O2 [1-785, 2-[[(18,2R,4R,58)-5-iodo-4-isopropyl-1-methyl-7-oxabicyclo[2.2.1]heptan-2-yl]oxymethyl]pyridine]
≥ 80%: weed inhibition rate [1] | weed inhibition rate [2] | weed inhibition rate [3] | weed inhibition rate [4] | weed inhibition rate [5] | weed inhibition rate [6] | weed inhibition rate [7] | weed inhibition rate [8] | weed inhibition rate [9] | weed inhibition rate [10] | weed inhibition rate [11] | weed inhibition rate [12] | weed inhibition rate [13] | weed inhibition rate [14]
